The values that follow come from ChEMBL document CHEMBL1201862, “PubChem BioAssay data set” (2004).

What all share (assay): NCI tumour cell line growth inhibition, 48 h
For assay [1], the system named is EKVX.
For assay [2], the system named is OVCAR-5.
The subject of assay [3] is SW-620.
For assay [4], the system named is PC-3.
For assay [5], the system named is COLO 205.
Assay [6] has as its system IGROV-1.
Assay [7] deals with HOP-92.
In assay [8] the test system is T47D.
The subject of assay [9] is MDA-MB-435.
In assay [10] the test system is HOP-62.
The subject of assay [11] is Hs-578T.
The subject of assay [12] is CCRF-CEM.
Assay [13] relates to SF-268.
Assay [14] concerns SNB-75.
In assay [15] the test system is SK-MEL-28.
Assay [16] deals with NCI-H23.
The test system of assay [17] is OVCAR-4.
Assay [18] concerns M14.
Assay [19] concerns HT-29.

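48-hour exposure; five concentrations; linearly interpolated endpoints. GI50 is the concentration that inhibits growth by half.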 Activity calls are given as the source filed them. Rule as the data show it: active = GI50 up to about 1.1 µM and inactive = higher.

In the case of `COc1cc2cc(C(=O)N3CC(COS(C)(=O)=O)c4c3cc([N+](=O)[O-])c3ccccc43)[nH]c2c(OC)c1OC` (configuration not stated), the GI50 in assay [1] was > 31.6 µM (inactive); in [2], 18.6 µM (inactive); in [3], 1.79 µM (inactive); in assay [4] it was 22.9 µM (inactive); in assay [5], > 35.6 µM (inactive); in assay [6], 23.5 µM (inactive). For the same compound, the GI50 in assay [7] is > 31.6 µM (inactive); in assay [8], > 31.6 µM (inactive); in [9] it was > 31.6 µM (inactive); in assay [10], 7.57 µM (inactive); in assay [11], > 31.6 µM (inactive); in [12], 0.778 µM (active). Moreover, the GI50 in [13] is 10.5 µM (inactive); in assay [14], > 24 µM (inactive); in assay [15], > 31.6 µM (inactive); in assay [16], 2.78 µM (inactive); in assay [17], > 31.6 µM (inactive); in assay [18], 19 µM (inactive). Besides, the GI50 in assay [19] is 6.15 µM (inactive).
For the compound `O=C1/C(=C/c2cccc3ccccc23)CCc2ccc([N+](=O)[O-])cc21`, the GI50 is 47 µM (inactive) in assay [1]; > 100 µM (inactive) in [2]; 9.66 µM (inactive) in assay [3]; 24.5 µM (inactive) in [4]; 34 µM (inactive) in assay [5]; 31.4 µM (inactive) in assay [6]. In addition, the GI50 in assay [7] is 23 µM (inactive); in assay [8] it was 21 µM (inactive); in assay [9], 6.71 µM (inactive); in assay [10], 28.2 µM (inactive); in [11], 9.57 µM (inactive); in assay [12], 60.8 µM (inactive). Also, the GI50 is 33.7 µM (inactive) in [13]; 19.2 µM (inactive) in [14]; 16.6 µM (inactive) in [15]; 67.5 µM (inactive) in assay [16]; 24.4 µM (inactive) in assay [18].
Take `C(=C\c1cccs1)/c1cccc(/C=C/c2cccs2)n1`: the GI50 in assay [1] was > 100 µM (inactive); in assay [2], > 100 µM (inactive); in assay [3], 24.8 µM (inactive); in [4], > 100 µM (inactive); in [5], 32.1 µM (inactive); in [6] it was 50 µM (inactive). The GI50 is > 100 µM (inactive) in assay [7]; 6.14 µM (inactive) in assay [8]; > 100 µM (inactive) in [9]; 83 µM (inactive) in assay [10]; 2.58 µM (inactive) in assay [11]; > 100 µM (inactive) in assay [12]. For the same compound, the GI50 is 2.61 µM (inactive) in [13]; 19.3 µM (inactive) in assay [14]; > 100 µM (inactive) in assay [15]; > 100 µM (inactive) in [16]; 12.4 µM (inactive) in [17]; > 100 µM (inactive) in assay [18]. Moreover, the GI50 in assay [19] was > 100 µM (inactive).
Consider `CC1(C)CCC2=C(O1)/C(=N\Nc1ccc(F)cc1)c1ccccc1C2=O`, for which the GI50 in assay [1] is 22.4 µM (inactive); in [2] it was 35.6 µM (inactive); in assay [3] it was 25.5 µM (inactive); in [4], 34.8 µM (inactive); in assay [5], 35.1 µM (inactive); in assay [6], 31.9 µM (inactive). Moreover, the GI50 in assay [7] was 39.5 µM (inactive); in [8], 17.3 µM (inactive); in [9] it was 18.1 µM (inactive); in assay [10] it was 21.7 µM (inactive); in assay [11] it was 28.4 µM (inactive); in [12], 11.8 µM (inactive). The GI50 in assay [13] was 52.1 µM (inactive); in [14] it was 22.2 µM (inactive); in [15], 26.2 µM (inactive); in [16] it was 25.2 µM (inactive); in assay [17], 34.4 µM (inactive); in [18], 20.1 µM (inactive). Further, the GI50 in [19] is 18.9 µM (inactive).
Turning to `COc1cc(C=O)cc(/C=N/n2c3ccccc3c3ccccc32)c1O`, the GI50 in assay [1] is 43.1 µM (inactive); in [2], 45.1 µM (inactive); in [3], 9.73 µM (inactive); in assay [4], 5.41 µM (inactive); in assay [5], 18.8 µM (inactive); in assay [7] it was 2.91 µM (inactive). The GI50 is > 100 µM (inactive) in assay [8]; 4.05 µM (inactive) in [9]; 30.3 µM (inactive) in [10]; 6.81 µM (inactive) in [11]; 4.09 µM (inactive) in assay [12]; 4.34 µM (inactive) in assay [13]. Also, the GI50 was 2.79 µM (inactive) in [14]; 5.83 µM (inactive) in assay [15]; 39.6 µM (inactive) in assay [16]; 74 µM (inactive) in assay [17]; 4.6 µM (inactive) in assay [18]; 35.7 µM (inactive) in [19].
For the compound `CCN(CC)c1ccc2cc(-c3csc(C)n3)c(=O)oc2c1`, the GI50 in assay [1] is > 100 µM (inactive); in assay [2], > 100 µM (inactive); in assay [3], > 100 µM (inactive); in [4], 43.5 µM (inactive); in assay [5], > 100 µM (inactive); in assay [6], 45.3 µM (inactive). Also, the GI50 in assay [7] was 27.4 µM (inactive); in assay [8], 2.14 µM (inactive); in assay [9], 42.9 µM (inactive); in assay [10], 30.6 µM (inactive); in [11], 25.7 µM (inactive); in assay [12], > 100 µM (inactive). Further, the GI50 in assay [13] was 81.3 µM (inactive); in assay [14] it was 0.0585 µM (active); in assay [15] it was > 100 µM (inactive); in assay [17] it was 34.6 µM (inactive); in [18], > 100 µM (inactive); in [19], 5.75 µM (inactive).
Take `O=C1O/C(=C(/Br)c2ccc(Cl)c(Cl)c2)c2ccccc21`: the GI50 in assay [1], in [2], in assay [3], in [4], in assay [5] and in [6] was > 10 µM (inactive) each time. For the same compound, the GI50 in [7], in assay [8], in [9], in [10], in assay [11] and in assay [12] was > 10 µM (inactive) in each case. Besides, the GI50 in [13], in [14], in assay [15], in [16], in assay [17] and in [18] was > 10 µM (inactive) in each case. Also, the GI50 in assay [19] was > 10 µM (inactive).
Turning to `Cc1cn(C2OC(CO[Si](C)(C)C(C)(C)C)/C(=C\C#N)C2O[Si](C)(C)C(C)(C)C)c(=O)[nH]c1=O` (configuration not stated), the GI50 in [2] is > 100 µM (inactive); in [3], > 100 µM (inactive); in assay [4] it was 3.83 µM (inactive); in assay [5] it was 12.5 µM (inactive); in assay [7], > 100 µM (inactive); in assay [8], 5.3 µM (inactive). Further, the GI50 in assay [9] was 56.1 µM (inactive); in assay [10] it was 63.7 µM (inactive); in assay [11], > 100 µM (inactive); in assay [12], 9.51 µM (inactive); in assay [13] it was 92.5 µM (inactive); in assay [14], 56.9 µM (inactive). In addition, the GI50 in [15] is > 100 µM (inactive); in assay [16], > 100 µM (inactive); in assay [17] it was 58.3 µM (inactive); in [18], > 100 µM (inactive); in assay [19] it was 40.7 µM (inactive).
For the compound `Cc1ccc(C2SC(=N)Nc3c2c(C)nn3C(=O)c2ccccc2O)cc1` (configuration not stated), the GI50 in [1] is > 10 µM (inactive); in assay [2], > 10 µM (inactive); in [3], > 10 µM (inactive); in assay [4], > 10 µM (inactive); in [5], > 10 µM (inactive); in assay [6], 2.81 µM (inactive). The GI50 in assay [7] was 0.475 µM (active); in [8] it was > 10 µM (inactive); in assay [9] it was 3.78 µM (inactive); in assay [10], > 10 µM (inactive); in assay [11] it was 1.51 µM (inactive); in [12], > 10 µM (inactive). The GI50 in [13] is 9.44 µM (inactive); in [14], 2.54 µM (inactive); in [15], > 10 µM (inactive); in [16] it was 7 µM (inactive); in assay [17] it was > 10 µM (inactive); in assay [18], > 10 µM (inactive). In [19], the GI50 was > 10 µM (inactive).
`O=S(=O)(O)c1cccc2cccc(/N=N/c3c(O)ccc4ccccc34)c12`: the GI50 was 92.3 µM (inactive) in assay [1]; > 100 µM (inactive) in assay [2]; > 100 µM (inactive) in [3]; > 100 µM (inactive) in [4]; > 100 µM (inactive) in assay [5]; 31.9 µM (inactive) in [6]. Moreover, the GI50 in [7], in assay [8], in [9], in assay [10], in [11] and in assay [12] was > 100 µM (inactive) throughout. Moreover, the GI50 in [13], in [14], in assay [16], in assay [17], in assay [18] and in [19] was > 100 µM (inactive) throughout.
For the compound `Cc1cnc2nc(-c3cccc4ccccc34)cc(O)c2c1`, the GI50 in assay [1] was 0.00282 µM (active); in assay [2], 0.00351 µM (active); in assay [3], 0.000449 µM (active); in assay [4] it was 0.00121 µM (active); in assay [5], 0.000708 µM (active); in assay [6] it was 0.00552 µM (active). In addition, the GI50 in assay [7] is 0.182 µM (active); in assay [8], 26 µM (inactive); in assay [9], 0.000211 µM (active); in [10], 0.0248 µM (active); in assay [11], 0.00107 µM (active); in [12], 0.000692 µM (active). The GI50 was 0.000516 µM (active) in [13]; 0.000407 µM (active) in [14]; 0.000619 µM (active) in assay [15]; 0.00179 µM (active) in assay [16]; 16.4 µM (inactive) in [17]; 0.000711 µM (active) in assay [18]. For the same compound, in [19], the GI50 is 0.000412 µM (active).
